Literature values in patent publication US9782362B2, “Uses of compositions containing a roasted extract and xanthohumol” (TA-XAN AG, priority 2012, dated 2017).
Like-named read-outs stand apart in the source and are kept apart here.

Assays:
[1] = test system: Diacylglycerol acetyltransferase (DGAT); conditions: in vitro
[2] = 4 weeks, female C3H-mice
[3] = mice
[4] = rat
angiogenesis = conditions: approx. 1 mg/kg per day three days per os; 4-6 mg/kg per day 60 days drinking water; or 1000 mg/kg subcutaneously
[5] = test system: human Kaposi's sarcoma (KS-IMM) cells; conditions: approx. 1.2 mg/kg for 23 days
bacterial culture = conditions: depending on doses ranging between 0.01 to 10 μM
[6] = up to 100 mg/kg/day per os, 4 weeks
[7] = test system: bone-resorbing cells (osteoclasts); conditions: in vitro
[8] = test system: Human breast tumor cells (MX-1 cells); conditions: daily subcutaneous 1000 mg/kg
[9] = direct chemical interaction
[10] = 100 mg/kg/day in drinking water for four weeks, then mated
[11] = test system: Cells in culture or rat liver; conditions: depending on doses ranging between 0.01 to 10 μM
Estrogen = conditions: oral three×100 mg/kg over three days
[12] = test system: Human breast tumor cells (MXF7 cells); conditions: daily dose of 4-6 mg/kg in the drinking water; not validated statistically at the 95% level
inflammation = conditions: oral 4-6 mg/kg per day for 60 days in drinking water
apoptosis = conditions: 4-6 mg/kg per day for 60 days in the drinking water

Compound: COc1cc(O)c(CC=C(C)C)c(O)c1C(=O)/C=C/c1ccc(O)cc1 [xanthohumol]
- DGAT inhibition [1]: inhibition of this enzyme
- development of weight, appearance of organs, haematologically clinical parameters, liver enzyme values, glucose metabolism ([2]; approximately 28 mg/kg/day in drinking water): uninfluenced
- impact on health ([2]; drinking water 5×10^−4M ad libitum, approximately 28 mg/kg/day): no unfavorable impact
- plasma glucose level [3]: reduction
- triglycerides [3]: reduction
- absorption following oral application [4]: poorly absorbed
- state in the excrement ([4]; oral): largely unchanged
- anti-angiogenetic action (angiogenesis): anti-angiogenetic action
- growth of the tumor inhibited [5]: 68%
- inhibition of mutagenic damage (bacterial culture): up to 100%
- toxicity [6]: no indication of toxicity
- inhibition of the resorption of bone ([7]; 1 μM): 35%
- inhibition of the resorption of bone ([7]; 10 μM): 94%
- growth of the tumor inhibited ([8]; in one week): 46%
- growth of the tumor inhibited ([8]; in two weeks): 83%
- interception of DPPH radical [9]: not able to intercept
- toxic effects (daily for 4 weeks: 100 mg/kg drinking water, 500 mg/kg in feed, 1000 mg/kg pharyngeal tube): no toxic effects whatsoever could be determined
- weight of the liver (high-dose groups (500 mg/kg/day and 1000 mg/kg/day), due to breakdown of glycogen): reduction in the weight of the liver
- influence on fertility or lactation [10]: Neither the pre-treatment of the female animals nor of the males had any influence
- inhibition of DNA damage [11]: up to 100%
- anti-estrogen action (Estrogen): possible to detect anti-estrogen action
- growth of the tumor inhibited [12]: 35%
- effect on inflammation (inflammation): inhibitive effect on inflammation was also established in vivo
- induction of apoptosis (apoptosis): could be detected
